# Laboratory results taken from patent US20240228488A1 (TAKEDA PHARMACEUTICAL COMPANY LIMITED, priority 2021, published 2024).
# Tests used:
# [1] = biological target: human activated kallikrein enzyme (Homo sapiens, UniProt P03952); experiment: Plasma kallikrein inhibition, fluorogenic PFR-AMC substrate, 500 pM activated kallikrein format; format: biochemical; details: 500 pM activated kallikrein, 300 uM PFR-AMC, 30 min preincubation, 10 min reaction; read-out: Primary Dose Response Assay: Average EC50
# In short: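 Fluorogenic readout (ex 380 / em 460 nm) after 10 min room-temperature reaction with 300 uM Pro-Phe-Arg-AMC substrate, following 30 min preincubation of inhibitors with 500 pM enzyme. Buffer: Tris pH 7.5, EDTA, NaCl, PEG-400, Triton X-100. Values given as EC50 ranges.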
# plasma kallikrein = biological target: T1, plasma kallikrein (Homo sapiens, UniProt P03952); experiment: Neat human plasma assay, FXIIa contact pathway-activated, PFR-AMC substrate; format: biochemical; details: citrated human plasma 78% final, 10 nM human FXIIa, 100 μM PFR-AMC; read-out: Human Plasma Assay: IC90
# T1 construct: from tissue
# In short: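 Compound inhibition of plasma kallikrein measured as PFR-AMC (100 μM) cleavage rate over 5 min at room temperature in 78% citrated human plasma activated with 10 nM FXIIa (Tris pH 7.5 buffer). IC50/IC90 from 4-parameter fit of rate versus inhibitor concentration.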
# Sequence of human activated kallikrein enzyme (P03952 391-638 limits assumed): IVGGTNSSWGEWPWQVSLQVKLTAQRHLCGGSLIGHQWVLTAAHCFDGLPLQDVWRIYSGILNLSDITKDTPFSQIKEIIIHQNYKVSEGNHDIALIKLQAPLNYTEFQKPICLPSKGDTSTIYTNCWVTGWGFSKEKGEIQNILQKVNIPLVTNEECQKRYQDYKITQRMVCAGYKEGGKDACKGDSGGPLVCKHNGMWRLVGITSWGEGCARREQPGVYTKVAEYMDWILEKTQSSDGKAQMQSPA
# Sequence of human activated kallikrein enzyme (P03952 20-390 partner limits assumed): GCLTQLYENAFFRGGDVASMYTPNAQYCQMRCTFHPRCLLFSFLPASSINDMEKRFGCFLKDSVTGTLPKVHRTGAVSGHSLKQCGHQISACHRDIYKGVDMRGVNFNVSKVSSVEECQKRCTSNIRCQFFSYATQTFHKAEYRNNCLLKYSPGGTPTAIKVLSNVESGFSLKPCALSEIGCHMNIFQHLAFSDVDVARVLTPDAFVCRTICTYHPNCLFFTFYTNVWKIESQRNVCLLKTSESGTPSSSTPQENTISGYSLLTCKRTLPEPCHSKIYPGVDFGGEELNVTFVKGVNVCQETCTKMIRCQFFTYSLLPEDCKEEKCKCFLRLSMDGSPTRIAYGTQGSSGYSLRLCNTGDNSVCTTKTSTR
# T1 sequence (P03952 391-638 limits assumed): as the sequence (P03952 391-638 limits assumed) above
# T1 sequence (P03952 20-390 partner limits assumed): as the sequence (P03952 20-390 partner limits assumed) above
SMILES,EC50 [1],IC90 (plasma kallikrein)
"Cc1csc([C@H]2C[C@@H]2C(=O)Nc2cc(NCc3cn4cc(C5CC5)cc(N5CC(=O)N(C)C5=O)c4n3)ncn2)n1 (racemic) [Example 446, rac-(1S*,2S*)—N-(6-(((6-cyclopropyl-8-(3-methyl-2,4-dioxoimidazolidin-1-yl)imidazo[1,2-a]pyridin-2-yl)methyl)amino)pyrimidin-4-yl)-2-(4-methylthiazol-2-yl)cyclopropane-1-carboxamide]",< 1 nM,400 to 1500 nM
"O=C(Nc1cc(NCc2cn3cc(C4CC4)cc(N4C[C@@H]5C[C@@H]5C4=O)c3n2)ncn1)[C@H]1C[C@@H]1c1cccc(Cl)c1 (racemic) [Example 457, rac-(1S,2S)-2-(3-chlorophenyl)-N-(6-(((6-cyclopropyl-8-((1R*,5S*)-2-oxo-3-azabicyclo[3.1.0]hexan-3-yl)imidazo[1,2-a]pyridin-2-yl)methyl)amino)pyrimidin-4-yl)cyclopropane-1-carboxamide]",1 to 10 nM,400 to 1500 nM
"Cc1nc([C@H]2C[C@@H]2C(=O)Nc2cc(NCc3cn4cc(C5CC5)cc(N5CC(=O)N(C)C5=O)c4n3)ncn2)ncc1F (racemic) [Example 489, rac-(1S*,2S*)—N-(6-(((6-cyclopropyl-8-(3-methyl-2,4-dioxoimidazolidin-1-yl)imidazo[1,2-a]pyridin-2-yl)methyl)amino)pyrimidin-4-yl)-2-(5-fluoro-4-methylpyrimidin-2-yl)cyclopropane-1-carboxamide]",< 1 nM,400 to 1500 nM
"Cc1ccnc([C@@]2(F)C[C@@H]2C(=O)Nc2cc(N(C)Cc3cn4cc(C5CC5)cc(N5CC(=O)N(C)C5=O)c4n3)nc(C)n2)n1 (racemic) [Example 490, rac-(1S*,2S*)-N-(6-(((6-cyclopropyl-8-(3-methyl-2,4-dioxoimidazolidin-1-yl)imidazo[1,2-a]pyridin-2-yl)methyl)(methyl)amino)-2-methylpyrimidin-4-yl)-2-fluoro-2-(4-methylpyrimidin-2-yl)cyclopropane-1-carboxamide]",< 1 nM,400 to 1500 nM
"Cc1nc([C@H]2C[C@@H]2C(=O)Nc2cc(NCc3cn4cc(C5CC5)cc(N5CC(=O)N(C)C5=O)c4n3)ncn2)cs1 (racemic) [Example 493, rac-(1S*,2S*)-N-(6-(((6-cyclopropyl-8-(3-methyl-2,4-dioxoimidazolidin-1-yl)imidazo[1,2-a]pyridin-2-yl)methyl)amino)pyrimidin-4-yl)-2-(2-methylthiazol-4-yl)cyclopropane-1-carboxamide]",1 to 10 nM,400 to 1500 nM
"Cc1ccnc([C@@H]2[C@@H](C(=O)Nc3cc(NCc4cn5cc(C6CC6)cc(N6CC(=O)N(C)C6=O)c5n4)ncn3)C2(F)F)n1 (racemic) [Example 494, rac-(1S*,3S*)-N-(6-(((6-cyclopropyl-8-(3-methyl-2,4-dioxoimidazolidin-1-yl)imidazo[1,2-a]pyridin-2-yl)methyl)amino)pyrimidin-4-yl)-2,2-difluoro-3-(4-methylpyrimidin-2-yl)cyclopropane-1-carboxamide]",< 1 nM,< 400 nM
"Cc1ncnc([C@H]2C[C@@H]2C(=O)Nc2cc(NCc3cn4cc(C5CC5)cc(N5CC(=O)N(C)C5=O)c4n3)ncn2)n1 (racemic) [Example 495, rac-(1S*,2S*)-N-(6-(((6-cyclopropyl-8-(3-methyl-2,4-dioxoimidazolidin-1-yl)imidazo[1,2-a]pyridin-2-yl)methyl)amino)pyrimidin-4-yl)-2-(4-methyl-1,3,5-triazin-2-yl)cyclopropane-1-carboxamide]",1 to 10 nM,400 to 1500 nM
"Cc1ccnc([C@@]2(F)C[C@@H]2C(=O)Nc2cc(NCc3cn4cc(C5CC5)cc(N5CC(=O)N(C)C5=O)c4n3)ncn2)n1 (racemic) [Example 496, rac-(1S*,2S*)-N-(6-(((6-cyclopropyl-8-(3-methyl-2,4-dioxoimidazolidin-1-yl)imidazo[1,2-a]pyridin-2-yl)methyl)amino)pyrimidin-4-yl)-2-fluoro-2-(4-methylpyrimidin-2-yl)cyclopropane-1-carboxamide]",< 1 nM,< 400 nM
"Cc1cc(C)nc([C@H]2C[C@@H]2C(=O)Nc2cc(NCc3cn4cc(C5CC5)cc(N5CC(=O)N(C)C5=O)c4n3)ncn2)n1 (racemic) [Example 497, rac-(1S*,2S*)-N-(6-(((6-cyclopropyl-8-(3-methyl-2,4-dioxoimidazolidin-1-yl)imidazo[1,2-a]pyridin-2-yl)methyl)amino)pyrimidin-4-yl)-2-(4,6-dimethylpyrimidin-2-yl)cyclopropane-1-carboxamide]",< 1 nM,400 to 1500 nM
"Cc1cncc([C@H]2C[C@@H]2C(=O)Nc2cc(NCc3cn4cc(C5CC5)cc(N5CC(=O)N(C)C5=O)c4n3)ncn2)n1 (racemic) [Example 498, rac-(1S*,2S*)-N-(6-(((6-cyclopropyl-8-(3-methyl-2,4-dioxoimidazolidin-1-yl)imidazo[1,2-a]pyridin-2-yl)methyl)amino)pyrimidin-4-yl)-2-(6-methylpyrazin-2-yl)cyclopropane-1-carboxamide]",< 1 nM,400 to 1500 nM
"Cc1nccc([C@H]2C[C@@H]2C(=O)Nc2cc(NCc3cn4cc(C5CC5)cc(N5CC(=O)N(C)C5=O)c4n3)ncn2)n1 (racemic) [Example 499, rac-(1S*,2S*)-N-(6-(((6-cyclopropyl-8-(3-methyl-2,4-dioxoimidazolidin-1-yl)imidazo[1,2-a]pyridin-2-yl)methyl)amino)pyrimidin-4-yl)-2-(2-methylpyrimidin-4-yl)cyclopropane-1-carboxamide]",1 to 10 nM,400 to 1500 nM
"Cc1cccc([C@H]2C[C@@H]2C(=O)Nc2cc(NCc3cn4cc(C5CC5)cc(N5CC(=O)N(C)C5=O)c4n3)ncn2)n1 (racemic) [Example 500, rac-(1S*,2S*)-N-(6-(((6-cyclopropyl-8-(3-methyl-2,4-dioxoimidazolidin-1-yl)imidazo[1,2-a]pyridin-2-yl)methyl)amino)pyrimidin-4-yl)-2-(6-methylpyridin-2-yl)cyclopropane-1-carboxamide]",< 1 nM,400 to 1500 nM
"Cc1ccnc([C@H]2C[C@@H]2C(=O)Nc2cc(NCc3cn4cc(C5CC5)cc(N5CC(=O)N(C)C5=O)c4n3)nc(C(F)(F)F)n2)n1 (racemic) [Example 501, rac-(1S*,2S*)-N-(6-(((6-cyclopropyl-8-(3-methyl-2,4-dioxoimidazolidin-1-yl)imidazo[1,2-a]pyridin-2-yl)methyl)amino)-2-(trifluoromethyl)pyrimidin-4-yl)-2-(4-methylpyrimidin-2-yl)cyclopropane-1-carboxamide]",< 1 nM,400 to 1500 nM
"Cc1ccc(F)c([C@H]2C[C@@H]2C(=O)Nc2cc(NCc3cn4cc(C5CC5)cc(N5CC(=O)N(C)C5=O)c4n3)ncn2)n1 (racemic) [Example 502, rac-(1S*,2S*)-N-(6-(((6-cyclopropyl-8-(3-methyl-2,4-dioxoimidazolidin-1-yl)imidazo[1,2-a]pyridin-2-yl)methyl)amino)pyrimidin-4-yl)-2-(3-fluoro-6-methylpyridin-2-yl)cyclopropane-1-carboxamide]",< 1 nM,400 to 1500 nM
"Cc1ccnc([C@H]2C[C@@H]2C(=O)Nc2ncc(F)c(NCc3cn4cc(C5CC5)cc(N5CC(=O)N(CCOCc6ccccc6)C5=O)c4n3)n2)n1 (racemic) [Example 515, rac-(1S*,2S*)-N-(4-(((8-(3-(2-(benzyloxy)ethyl)-2,4-dioxoimidazolidin-1-yl)-6-cyclopropylimidazo[1,2-a]pyridin-2-yl)methyl)amino)-5-fluoropyrimidin-2-yl)-2-(4-methylpyrimidin-2-yl)cyclopropane-1-carboxamide]",< 1 nM,400 to 1500 nM
"Cc1ccnc([C@H]2C[C@@H]2C(=O)Nc2ncc(F)c(N(C)Cc3cn4cc(C5CC5)cc(N5CC(=O)NC5=O)c4n3)n2)n1 (racemic) [Example 516, rac-(1S*,2S*)-N-(4-(((6-cyclopropyl-8-(2,4-dioxoimidazolidin-1-yl)imidazo[1,2-a]pyridin-2-yl)methyl)(methyl)amino)-5-fluoropyrimidin-2-yl)-2-(4-methylpyrimidin-2-yl)cyclopropane-1-carboxamide]",< 1 nM,< 400 nM
"Cc1ccnc([C@H]2C[C@@H]2C(=O)Nc2ncc(F)c(NCc3cn4cc(C5CC5)cc(N5CC(=O)N(C)C5=O)c4n3)n2)n1 (racemic) [Example 517, rac-(1S*,2S*)-N-(4-(((6-cyclopropyl-8-(3-methyl-2,4-dioxoimidazolidin-1-yl)imidazo[1,2-a]pyridin-2-yl)methyl)amino)-5-fluoropyrimidin-2-yl)-2-(4-methylpyrimidin-2-yl)cyclopropane-1-carboxamide]",< 1 nM,< 400 nM
"Cc1ccnc([C@H]2C[C@@H]2C(=O)Nc2ncc(C(F)(F)F)c(NCc3cn4cc(C5CC5)cc(N5CC(=O)N(C)C5=O)c4n3)n2)n1 (racemic) [Example 518, rac-(1S*,2S*)-N-(4-(((6-cyclopropyl-8-(3-methyl-2,4-dioxoimidazolidin-1-yl)imidazo[1,2-a]pyridin-2-yl)methyl)amino)-5-(trifluoromethyl)pyrimidin-2-yl)-2-(4-methylpyrimidin-2-yl)cyclopropane-1-carboxamide]",< 1 nM,< 400 nM
